Assay results taken from patent US20170209375A1, “NANOPARTICLE FORMULATIONS OF LOW-WATER SOLUBILITY ACTIVES” (Bend Research, Inc., priority 2014, published 2017).
Converted amounts (≈) assume the structure as drawn. “And” between values parts separate entries of the source, which are not always exact repeats. Identical values can stand only once. Counter-ions that a name gives are not always drawn. Like-named read-outs stand apart in the source and are kept apart here. One block for each molecule: values may come before it.

Experiments:
[1] = cited from earlier work
[2] = pKa of counterions and active agents; assay type: physicochemical; conditions: active vs its counterion; read-out: difference between the pKa of the active and the counterion
[3] = pH 6.5; cited from earlier work
[4] = counterion, first value of the cell, some values marked estimated

SMILES: c1ccc(CNCCNCc2ccccc2)cc1 [N,N′-dibenzylethylene diamine]
pKa [1, 4]: 6.2

SMILES: CC(C)(C)c1ccc2c(S(=O)(=O)O)c(C(C)(C)C)ccc2c1 [2,6-di-tert-butylnaphthalene-1-sulfonate]
pKa [1, 4]: −2.48

SMILES: C#Cc1cccc(Nc2ncnc3cc(OCCOC)c(OCCOC)cc23)c1 [Erlotinib, N-(3-ethynylphenyl)-6,7-bis(2-methoxyethoxy) quinazolin-4-amine, reference compound]
pKa [2]: ≥ 4.4
pKa ([1]; active agent): 5.42 and 5.4
solubility in phosphate buffered saline [3]: 1 µg/mL (≈ 2.54 µM)

SMILES: CC(C)CCOC(=O)CC(C(=O)OCCC(C)C)S(=O)(=O)O (stereo not drawn) [1,4-diisopentyloxy-1,4-dioxobutane-2-sulfonate]
pKa [1, 4]: <1 estimated

SMILES: CC(C)CCC[C@@H](C)[C@H]1CC[C@H]2[C@@H]3CC=C4C[C@@H](OP(=O)(O)O)CC[C@]4(C)[C@H]3CC[C@]12C [Cholesteryl phosphate, cholesteryl phosphate]
pKa [1, 4]: <2 estimated

SMILES: O=C(CC(C(=O)OC1CCCCC1)S(=O)(=O)O)OC1CCCCC1 (stereo not drawn) [1,4-dicyclohexyloxy-1,4-dioxobutane-2-sulfonate]
pKa [1, 4]: <1 estimated

SMILES: CC(C)c1ccc2c(c1)CC[C@H]1[C@](C)(CNCCNC[C@]3(C)CCC[C@]4(C)c5ccc(C(C)C)cc5CC[C@@H]34)CCC[C@]21C [N^1,N^2-bis(((1 R,4aS,10aR)-7-isopropyl-1,4a-dimethyl-1,2,3,4,4a,9,10,10a-octahydrophenanthren-1-yl)methyl)ethane-1,2-diamine]
pKa [1, 4]: 6.6

SMILES: CC(C)(C)c1ccc2c(S(=O)(=O)O)c(C(C)(C)C)ccc2c1S(=O)(=O)O [2,6-di-tert-butylnaphthalene-1,5-disulfonate]
pKa [1, 4]: −2.32
pKa ([1]; counterion, second value printed in the same cell): −3.05

SMILES: Cc1c(C)c2c(c(C)c1OP(=O)(O)O)CCC(C)(CCCC(C)CCCC(C)CCCC(C)C)O2 (stereo not drawn) [Tocopherol phosphate, tocopherol phosphate]
pKa [1, 4]: <2 estimated

SMILES: c1ccc(CCNCc2ccccc2)cc1 [N-(benzyl)-2-phenylethan-1-amine]
pKa [1, 4]: 9.4

pKa [2]: 5.2
SMILES: COc1ccc(-c2ccc3cc(C(=O)O)ccc3c2)cc1C12CC3CC(CC(C3)C1)C2 [Adapalene, reference compound]
pKa ([1]; active agent): 4.2

SMILES: Cc1c(C)c2c(c(C)c1OS(=O)(=O)O)CCC(C)(CCCC(C)CCCC(C)CCCC(C)C)O2 (stereo not drawn) [Tocopherol sulfate, tocopherol sulfate]
pKa [1, 4]: <1 estimated

SMILES: O=S(=O)(O)c1ccc2ccccc2c1 [2-Naphthalenesulfonate, 2-naphthalene sulfonate]
pKa [1, 4]: 0.17

SMILES: CC(C)CCC[C@@H](C)[C@H]1CC[C@H]2[C@@H]3CC=C4CC(OS(=O)(=O)O)CC[C@]4(C)[C@H]3CC[C@]12C (stereo partly drawn) [Cholesteryl sulfate, cholesteryl sulfate]
pKa [1, 4]: <1 estimated
